Measurements: US7250251B2, “Virion-based fusion assay” (The J. David Gladstone Institutes, priority 2002, dated 2007)

Columns and labels:
[1] = system: X4-tropic NL4-3 virions containing BlaM-Vpr fusing to SupT1 cells; test: Virion-based fusion assay (BlaM-Vpr/CCF2) in SupT1 cells, flow cytometry; format: cell-based, HIV-1; conditions: NL4-3, 2 hours, about 20% of cells shifted without inhibitor
Experimental: (§1) No antibiotics were added to the culture media.
(§2) Light splitting was performed using a 505 SP filter.
After CCF2/AM loading, fusion was analyzed by multi-parameter flow cytometry using a violet laser for excitation of CCF2.

[2] = system: CXCR4-tropic HIV-1 virions containing BlaM-Vpr fusing to primary PBMCs; test: Virion-based fusion assay (BlaM-Vpr/CCF2) in PHA-stimulated PBMCs, flow cytometry; format: cell-based; conditions: CXCR4-tropic virions 100 ng p24 Gag, 2 hours, 5.2% of cells fused without inhibitor
Experimental: as §1, §2
PBMCs were activated with phytohemagglutinin (PHA) (10 ug/ml) overnight and subsequently cultured in IL-2 (20 IU/ml) for 5 days. The cells were then either mock-infected (FIG. 5, panel a) or infected for 2 hours with 100 ng p24-Gag of X4-tropic NL4-3 virions containing the BlaM-Vpr chimeric viral protein (FIG. 5, panels b, c, d, and e) or 500 ng p24-Gag of R5-tropic […] virions containing the BlaM-Vpr chimeric viral protein (FIG. 5, panels f, g, h, and i) either in the absence of inhibitors (FIG. 5, panel b and f) or in the presence of AMD3100 (250 nM, FIG. 5, panel c and g), […] (250 nM, FIG. 5, panels d and h), or AZT (10 μM, FIG. 5, panels e and i). After CCF2/AM dye loading of the cells, the BlaM reaction was allowed to develop for 12 hours. Virion fusion was analyzed by multi-parameter flow cytometry.

[3] = system: X4-tropic NL4-3 strain of HIV (BlaM-Vpr-containing virions) fusing to HeLa-CD4 cells; conditions: 250 nM added 1 hour prior to infection, NL4-3 200 ng p24-Gag, 2 hours, about 10% blue cells without inhibitor
Experimental: The virion-based fusion assay was performed in three successive steps, including 1) incubation of target cells with virus particles; 2) loading of target cells with CCF2/AM dye, and 3) development and detection of the BlaM reaction. Once target cells were loaded with the CCF2 dye, the cells were maintained at room temperature to avoid export of CCF2. Since viral infections are performed at 37° C., the infection step was performed first, and then the cell cultures were subsequently loaded with the CCF2/AM dye. […]
The change in emission fluorescence of CCF2 following cleavage by the BlaM-Vpr chimera was monitored by flow cytometry using a 3 laser Vantage SE instrument (Becton Dickinson, Inc., San Jose, Calif.). […] Blue emission was detected using an HQ455/50 filter while green emission data was collected using an HQ545/90 BP filter. […] Data were collected using CellQuest and analyzed with FlowJo software (Treestar Inc., San Carlos, Calif.). […]
Cultures of HeLa-CD4 cells expressing endogenous CXCR4 receptors were either mock-infected or infected for 2 hours with BlaM-Vpr-containing virions (200 ng p24-Gag) corresponding to an X4-tropic NL4-3 strain of HIV or an R5-tropic 81A strain of HIV. […] After loading of the cells with the CCF2/AM dye, fusion was analyzed by fluorescence microscopy. […]

[4] = system: CCR5-tropic strain of HIV-1 (81A) containing BlaM-Vpr fusing to CCR5-Jurkat T cells; test: Virion-based fusion assay (BlaM-Vpr/CCF2) in Jurkat T cells expressing CCR5; format: cell-based; conditions: 250 nM preincubation, R5-tropic 81A virions
Experimental: as §1, §2
To investigate whether the BlaM-Vpr assay discriminates between productive and non-productive virion entry by fusion and endocytosis respectively, Jurkat T cells either expressing or not expression CCR5 were incubated with a CCR5-tropic strain of HIV-1 (81A) containing BlaM-Vpr (FIG. 3). […] These 81A virions were capable of fusion as indicated by the increase in blue fluorescence obtained when these virions were incubated with Jurkat T cells expressing CCR5 (FIG. 3, panel d, compare with mock infection control in FIG. 3, panel c).

| SMILES | shift to increased blue fluorescence induced by viral infection (virion fusion) ([1]; 250 nM pretreatment) | inhibition of shift to greater blue fluorescence (virion fusion) ([2]; 250 nM pretreatment) | blue cells (virion fusion, CCF2 cleavage) in virally infected cells pretreated with inhibitor [3] | shift to increased blue fluorescence induced by viral infection (virion fusion) ([1]; 10 μM) | inhibition of shift to greater blue fluorescence (virion fusion) ([2]; 10 μM pretreatment) | shift to increased blue fluorescence (virion fusion) [4] |
| --- | --- | --- | --- | --- | --- | --- |
| c1cc(CN2CCCNCCNCCCNCC2)ccc1CN1CCCNCCNCCCNCC1 [AMD3100] | almost completely blocked | inhibited this change | essentially no blue cells were detected | – | – | – |
| Cc1cn([C@H]2C[C@H](N=[N+]=[N-])[C@@H](CO)O2)c(=O)[nH]c1=O [AZT] | – | – | – | did not impair the shift to greater blue fluorescence | produced no inhibitory effect | – |
| Cc1ccc(-c2ccc3c(c2)C=C(C(=O)Nc2ccc(C[N+](C)(C)C4CCOCC4)cc2)CCC3)cc1.[Cl-] [TAK-779] | – | produced no inhibitory effect | – | – | – | no shift to increased blue fluorescence was observed |
